Reference: ChEMBL document CHEMBL4190300, “Discovery and Synthesis of Caracolamide A, an Ion Channel Modulating Dichlorovinylidene Containing Phenethylamide from a Panamanian Marine Cyanobacterium cf. Symploca Species” (J Nat Prod, 2017)
pIC50: −log10 of the molar value. Active and inactive are the calls of the source. No cut-off for these calls is given here.

Assays:
[1] = organism: Mus musculus; test: Inhibition of spontaneous calcium oscillations in Swiss Webster mouse neocortical neurons at 0.01 nM to 1000 nM measured for 2 mins by Fluo-3 AM dye based FLIPR assay
[2] = tested on: NCI-H460; test: Cytotoxicity against human NCI-H460 cells after 48 hrs by MTT assay; assay type: functional, cell-based; conditions: NCI-H460, 48 h

| Structure (SMILES) | inhibition [1] | pIC50 [2] |
| --- | --- | --- |
| NCCc1ccccc1 | Active |  |
| C=CC[C@@H](C[C@@H](C[C@@H](C[C@@H](C[C@@H](C[C@@H](C[C@@H](C[C@@H](C[C@@H](C[C@@H](CCCCC)OC)OC)OC)OC)OC)OC)OC)OC)OC)OC |  | < 5.00 |
| O=C(CCCCCC=C(Cl)Cl)NCCc1ccccc1 | Active | < 5.00 |
